The experiment relates to PKC mediated IL-2 production. The experiment in a line: IL-2 ELISA, human primary T cell, anti CD3+CD28+. The class given is cell-based. The note with it: human primary T cells stimulated with αCD3 and αCD28, 24 hours. The essentials: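 IL-2 was quantified by ELISA in 24 h supernatants from primary human T cells given a 1 h compound pre-treatment at 37° C. These cells had been expanded from blood mononuclear cells on αCD3/αCD28 with IL-2, and the IL-2 was removed by washing. Stimulation used plate-bound αCD3 ([…]) plus αCD28 (5 μg/ml); the counter assay used PMA (0.5 ng/ml) with ionomycin (0.1 uM) instead.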
A general note: In an ELISA, binding on a coated surface is turned into a signal by an enzyme label.

SMILES strings stand for the structures.

This note sets out measurements from patent publication US9682976B2, “Protein kinase C inhibitors and uses thereof” (Rigel Pharmaceuticals, Inc., priority 2012, dated 2017).

What is called EC50 is the concentration at which the effect is half-maximal. A high value points to a less potent agent. On to `Cn1nnn(-c2cc(Nc3ncc(F)c(N[C@@H]4C[C@@H]5CCCN5C(C)(C)C4)n3)c(F)cc2OCC2COCCO2)c1=O` (stereo partly drawn) [Compound 169, 1-(2-((1,4-dioxan-2-yl)methoxy)-5-((4-(((7R,8aS)-5,5-dimethyloctahydroindolizin-7-yl)amino)-5-fluoropyrimidin-2-yl)amino)-4-fluorophenyl)-4-methyl-1,4-dihydro-5H-tetrazol-5-one], for which, under “Homo sapiens, T-cell, 24 h”, the EC50 lay in the range of 1000 to 10000 nM. Under “Homo sapiens, T-cell, 24 h”, `Cc1ccc(Nc2ncc(F)c(N[C@@H]3C[C@@H]4CCCN4C(C)(C)C3)n2)cc1-n1nnnc1SCCO` [Compound 282, 2-(1-(5-(4-((7R,8aS)-octahydro-5,5-dimethylindolizin-7-ylamino)-5-fluoropyrimidin-2-ylamino)-2-methylphenyl)-1H-tetrazol-5-ylthio)ethanol] registered a 50% effective concentration (EC50) below 100 nM. As to `[2H]C([2H])(O)C([2H])([2H])Oc1ccc(Nc2ncc(F)c(N[C@@H]3C[C@@H]4CCCN4C(C)(C)C3)n2)cc1C#N` [Compound 219, 5-((4-(((7R,8aS)-5,5-dimethyloctahydroindolizin-7-yl)amino)-5-fluoropyrimidin-2-yl)amino)-2-(2-hydroxyethoxy-1,1,2,2-d4)benzonitrile], the EC50 lay within 100 to 500 nM. Turning to `COc1cc(Nc2ncc(F)c(N[C@@H]3C[C@@H]4CCCN4C(C)(C)C3)n2)ccc1O` [Compound 208, 4-((4-(((7R,8aS)-5,5-dimethyloctahydroindolizin-7-yl)amino)-5-fluoropyrimidin-2-yl)amino)-2-methoxyphenol], the EC50 (Homo sapiens, T-cell, 24 h) fell in the range of 1000 to 10000 nM. The same measure, in the same setting: then `CC1(C)C[C@H](Nc2nc(Nc3ccc(OCC4(CO)COC4)c(C#N)c3)ncc2F)C[C@@H]2CCCN21` [Compound 174, 5-(4-((7R,8aS)-5,5-dimethyloctahydroindolizin-7-ylamino)-5-fluoropyrimidin-2-ylamino)-2-((3-(hydroxymethyl)oxetan-3-yl)methoxy)benzonitrile], with 500 to 1000 nM; and `CC1(C)C[C@H](Nc2nc(Nc3ccc(N4CCOCC4)c(C#N)c3)ncc2F)C[C@@H]2CCCN21` [Compound 106, 5-((4-(((7R,8aS)-5,5-dimethyloctahydroindolizin-7-yl)amino)-5-fluoropyrimidin-2-yl)amino)-2-morpholinobenzonitrile], with 100 to 500 nM. The same measure, in the same setting: under `C[C@H](CO)COc1cc(F)c(Nc2ncc(F)c(N[C@@H]3C[C@@H]4CCCN4C(C)(C)C3)n2)cc1-n1nnn(C)c1=O` [Compound 222, 1-(5-((4-(((7R,8aS)-5,5-dimethyloctahydroindolizin-7-yl)amino)-5-fluoropyrimidin-2-yl)amino)-4-fluoro-2-((R)-3-hydroxy-2-methylpropoxy)phenyl)-4-methyl-1,4-dihydro-5H-tetrazol-5-one] stands 100 to 500 nM. As to `CC1(C)CC(Nc2nc(Nc3ccc(O[C@H]4CCOC4)c(C#N)c3)ncc2F)CC2CCCN21` (single isomer, unassigned) [Compound 62], the EC50 was in the range of 100 to 500 nM. The same measure, in the same setting: then `Cn1nnn(-c2cc(Nc3ncc(F)c(N[C@@H]4C[C@@H]5CCCN5C(C)(C)C4)n3)c(F)cc2OCCN)c1=O` [Compound 228, 1-(2-(2-aminoethoxy)-5-((4-(((7R,8aS)-5,5-dimethyloctahydroindolizin-7-yl)amino)-5-fluoropyrimidin-2-yl)amino)-4-fluorophenyl)-4-methyl-1,4-dihydro-5H-tetrazol-5-one], with 100 to 500 nM. On to `CC1(C)C[C@H](Nc2nc(Nc3cccc(-n4nnnc4SCCO)c3)ncc2F)C[C@@H]2CCCN21` [Compound 266, 2-(1-(3-(4-((7R,8aS)-octahydro-5,5-dimethylindolizin-7-ylamino)-5-fluoropyrimidin-2-ylamino)phenyl)-1H-tetrazol-5-ylthio)ethanol], for which the EC50 (Homo sapiens, T-cell, 24 h) is below 100 nM. The same measure, in the same setting: then `CC1(C)C[C@H](Nc2nc(Nc3ccc(O[C@@H]4CCN(C5COC5)C[C@H]4F)c(C(F)(F)F)c3)ncc2F)C[C@@H]2CCCN21` [Compound 122], with 100 to 500 nM; and `Cn1nnn(-c2cc(Nc3ncc(F)c(N[C@@H]4C[C@@H]5CCCN5C(C)(C)C4)n3)c(F)cc2OC2COC2)c1=O` [Compound 88, 1-(5-(4-((7R,8aS)-octahydro-5,5-dimethylindolizin-7-ylamino)-5-fluoropyrimidin-2-ylamino)-4-fluoro-2-(oxetan-3-yloxy)phenyl)-4-methyl-1H-tetrazol-5(4H)-one], with 100 to 500 nM; and `CN(C)CCOc1cc(F)c(Nc2ncc(F)c(N[C@@H]3C[C@@H]4CCCN4C(C)(C)C3)n2)cc1-n1nnn(C)c1=O` [Compound 192, 1-(2-(2-(dimethylamino)ethoxy)-5-((4-(((7R,8aS)-5,5-dimethyloctahydroindolizin-7-yl)amino)-5-fluoropyrimidin-2-yl)amino)-4-fluorophenyl)-4-methyl-1,4-dihydro-5H-tetrazol-5-one], with 100 to 500 nM.

Compound `COc1cc(Nc2ncc(Cl)c(N[C@@H]3C[C@@H]4CCCN4C(C)(C)C3)n2)cc(-n2nnnc2C)c1` [Compound 152, 5-chloro-N4-((7R,8aS)-5,5-dimethyloctahydroindolizin-7-yl)-N2-(3-methoxy-5-(5-methyl-1H-tetrazol-1-yl)phenyl)pyrimidine-2,4-diamine] came in with an EC50 (Homo sapiens, T-cell, 24 h) below 100 nM. The compound `CC1(C)C[C@H](Nc2nc(Nc3ccc(OCC4CCOCC4)c(C#N)c3)ncc2F)C[C@@H]2CCCN21` [Compound 178, 5-(4-((7R,8aS)-5,5-dimethyloctahydroindolizin-7-ylamino)-5-fluoropyrimidin-2-ylamino)-2-((tetrahydro-2H-pyran-4-yl)methoxy)benzonitrile] gave an EC50 (Homo sapiens, T-cell, 24 h) of 100 to 500 nM.

Regarding `CC1(C)C[C@H](Nc2nc(Nc3ccc(Br)c(C#N)c3)ncc2F)C[C@@H]2CCCN21` [Compound 180, 2-bromo-5-((4-(((7R,8aS)-5,5-dimethyloctahydroindolizin-7-yl)amino)-5-fluoropyrimidin-2-yl)amino)benzonitrile], the EC50 (Homo sapiens, T-cell, 24 h) lay in the range of 100 to 500 nM. Same read-out and setting: then `COCCOc1ccc(Nc2ncc(F)c(N[C@@H]3C[C@@H]4CCCN4C(C)(C)C3)n2)c(F)c1OCCOC` [Compound 160, N4-((7R,8aS)-5,5-dimethyloctahydroindolizin-7-yl)-5-fluoro-N2-(2-fluoro-3,4-bis(2-methoxyethoxy)phenyl)pyrimidine-2,4-diamine], with 1000 to 10000 nM; and `Cn1nnn(-c2cc(Nc3ncc(C#N)c(N[C@@H]4C[C@@H]5CCCN5C(C)(C)C4)n3)c(F)cc2OC2COC2)c1=O` [Compound 113, 4-(((7R,8aS)-5,5-dimethyloctahydroindolizin-7-yl)amino)-2-((2-fluoro-5-(4-methyl-5-oxo-4,5-dihydro-1H-tetrazol-1-yl)-4-(oxetan-3-yloxy)phenyl)amino)pyrimidine-5-carbonitrile], with 100 to 500 nM; and `Cn1nnn(-c2cc(Nc3ncc(F)c(NC4CCN5C(CCC5(C)C)C4)n3)c(F)cc2C2CC2)c1=O` (racemic) [Compound 26, 1-(5-(5-fluoro-4-(octahydro-3,3-dimethylindolizin-7-ylamino)pyrimidin-2-ylamino)-2-cyclopropyl-4-fluorophenyl)-4-methyl-1H-tetrazol-5(4H)-one], with 1000 to 10000 nM.

As to `Cn1nc2n(c1=O)-c1cc(Nc3ncc(F)c(N[C@@H]4C[C@@H]5CCCN5C(C)(C)C4)n3)ccc1OC2(CO)CO` [Compound 288, 5-fluoro-N2-(1H-2,4-dihydron-4,4-di(hydroxymethyl)-2-methyl-[1,2,4]triazolo[3,4-c][1,4]benzoxazin-1-one-8-yl)-N4-((7R,8aS)-octahydro-5,5-dimethylindolizin-7-yl)pyrimidine-2,4-diamine], the EC50 (Homo sapiens, T-cell, 24 h) was in the range of 1000 to 10000 nM. Still for that read-out and setting: then `COc1cc(Nc2ncc(F)c(N[C@@H]3C[C@@H]4CCCN4C(C)(C)C3)n2)c(F)c(-n2nnnc2C)c1` [Compound 241, 5-fluoro-N2-(2-fluoro-5-methoxy-3-(5-methyl-1H-tetrazol-1-yl)phenyl)-N4-((7R,8aS)-octahydro-5,5-dimethylindolizin-7-yl)pyrimidine-2,4-diamine], with 100 to 500 nM. Compound `Cn1nnn(-c2cc(Nc3ncc(F)c(N[C@@H]4C[C@@H]5CCCN5C(C)(C)C4)n3)c(F)cc2OCC2CCO2)c1=O` (stereo partly drawn) [Compound 167, 1-(5-((4-(((7R,8aS)-5,5-dimethyloctahydroindolizin-7-yl)amino)-5-fluoropyrimidin-2-yl)amino)-4-fluoro-2-(oxetan-2-ylmethoxy)phenyl)-4-methyl-1,4-dihydro-5H-tetrazol-5-one] gave an EC50 (Homo sapiens, T-cell, 24 h) of 100 to 500 nM.

`CC1(C)C[C@H](Nc2nc(Nc3cc(-n4nnnc4C4CC4)c(OC4COC4)cc3F)ncc2F)C[C@@H]2CCCN21` [Compound 255, N2-(5-(5-cyclopropyl-1H-tetrazol-1-yl)-2-fluoro-4-(oxetan-3-yloxy)phenyl)-5-fluoro-N4-((7R,8aS)-octahydro-5,5-dimethylindolizin-7-yl)pyrimidine-2,4-diamine]: the EC50 (Homo sapiens, T-cell, 24 h) was below 100 nM.

`Cn1nnn(-c2cc(Nc3ncc(F)c(N[C@@H]4C[C@@H]5CCCN5C(C)(C)C4)n3)c(F)cc2O)c1=O` [Compound 89, 1-(5-(4-((7R,8aS)-octahydro-5,5-dimethylindolizin-7-ylamino)-5-fluoropyrimidin-2-ylamino)-4-fluoro-2-hydroxyphenyl)-4-methyl-1H-tetrazol-5(4H)-one] returned an EC50 (Homo sapiens, T-cell, 24 h) of 1000 to 10000 nM.

`CC1(C)C[C@@H](Nc2nc(Nc3cc(-n4cnnn4)c(C4CC4)cc3F)ncc2F)C[C@@H]2CC(F)(F)CN21` [Compound 43, N^2-(4-cyclopropyl-2-fluoro-5-(1H-tetrazol-1-yl)phenyl)-5-fluoro-N^4-((7S,8aR)-2,2-difluoro-octahydro-5,5-dimethylindolizin-7-yl)pyrimidine-2,4-diamine] had an EC50 (Homo sapiens, T-cell, 24 h) of 1000 to 10000 nM. Still for that read-out and setting: then `CC1(C)CC[C@H]2C[C@@H](Nc3nc(Nc4cc(-n5nnnc5C5COC5)c(C5CC5)cc4F)ncc3F)CCN21` [Compound 301, N2-(4-Cyclopropyl-2-fluoro-5-(5-(oxetan-3-yl)-1H-tetrazol-1-yl)phenyl)-N4-((7S,8aS)-3,3-dimethyloctahydroindolizin-7-yl)-5-fluoropyrimidine-2,4-diamine], with below 100 nM.
